In US20130060020A1, “Compounds useful for treating neurodegenerative disorders” (Satori Pharmaceuticals, Inc., priority 2011, published 2013):
pIC50: −log10 of the molar value. Like-named read-outs stand apart in the source and are kept apart here.

Experiments:
Type in all cases: cell-based
Details in all cases: Homo sapiens, 5 hours treatment
Aβ-38 = Aβ-38 MSD 3-plex ELISA, conditioned media of 2B7 cells
Protocol: (§1) Assays were conducted to determine the ability of a Compound of Formula I to modulate […], and Aβ-38.
(§2) Plates with capture antibodies were blocked for 1-2 hours at room temperature with 150 μL of the manufactures blocking reagent.
(§3) Cultured 2B7 cells in 96 well plate with 250 μL of media per well until confluent;
(§4) Prepared serial dilutions of compounds in DMSO at 100× the final desired concentration;
(§5) Washed wells with 2B7 cells 1× with 250 μL of media;
(§6) Diluted DMSO stocks 1:100 into media: • Added 250 μL of media containing compounds (1% DMSO) to wells with 2B7 cells for 5 hours at 37° C.
(§7) ELISA Sample Prep: • Diluted conditioned media: 1 part media with 1% DMSO and 1 part blocking buffer; • 150 μL of the 250 μL of conditioned media were used.
(§8) Prepared per manufacturer's protocol (see above). • Seven point standard curve samples were prepared that contained Aβ-42, Aβ-40, and Aβ-38. The highest concentration of Aβ-42 and Aβ-38 was 3,000 pg/mL and the highest concentration of Aβ-40 was 10,000 pg/mL. Subsequent serial dilutions were 1:3 and the final composition of each sample was 1 part blocking buffer and 1 part cell medium containing 1% DMSO.
(§9) Overnight Sample Incubation: • Blocked plates are washed 5× with MSD wash buffer with a plate washer; • […] and blocker G reagent in MSD blocking solution was added; • 25 μL of samples (1 part conditioned media containing 1% DMSO and 1 part MSD blocking buffer) were then added; • Plates were incubated overnight at 4 degrees C. or 2 hours at room temperature.
(§10) Final Wash and Readout: • Washed wells 5× with MSD wash buffer; • Added 150 μL 2×MSD read buffer; • Read with MSD imager.
(§11) Aβ peptide levels for each peptide were calculated from the standard curve using the MSD software provided with the MSD 2400 Imager. Percent vehicle values for each compound dosage were then calculated and fit to a 4 parameter curve generating IC50 values.
(§12) Conditioned media from 2B7 cells (Mayo) was collected after 5 hours of treatment and diluted with 1 volume of Meso Scale Discovery (MSD, Gaithersburg Md.) blocking buffer (1% BSA in MSD wash buffer). For total Aβ measurements, standard-bind, multi-array single spot 96 well MSD ELISA plates were coated with unlabeled 4G8 capture antibody (Covance, Princeton, N.J.) overnight at 4° C. and then blocked with 5% BSA in MSD wash buffer for 1 hour at room temperature with orbital shaking Diluted 2B7 conditioned media were added to the blocked in-house total Aβ MSD plates with SULFO-TAG 6E10 antibody (MSD). For Aβ38, 40 and 42 measurements, diluted 2B7 conditioned media were added to blocked human (6E10) Aβ 3-Plex plates (MSD). Total Aβ and Aβ 3-Plex plates were incubated for 2 hours at room temperature with orbital shaking followed by washing and reading according to the manufacturer's instructions (SECTOR® Imager 2400, MSD). Aβ concentrations were converted to percent vehicle values and used to construct dose response curves which were fitted to […] using GraphPad Prism version 5.00 for Windows, GraphPad Software, San Diego Calif. USA.

Aβ-42 = Aβ-42 MSD 3-plex ELISA, conditioned media of 2B7 cells
Protocol: as §1, §2, §3, §4, §5, §6, §7, §8, §9, §10, §11, §12

Aβ-40 = Aβ-40 MSD 3-plex ELISA, conditioned media of 2B7 cells
Protocol: as §1, §2, §3, §4, §5, §6, §7, §8, §9, §10, §11, §12

[1] = inflection of dose response curve, read-out: Aβ 42 DR IC50 Inflection
[2] = inflection of dose response curve, read-out: Aβ 40 DR IC50 Inflection

## CCO[C@@H]([C@H]1C[C@@H](C)[C@H]2[C@H](O1)[C@H](O)[C@@]1(C)[C@@H]3CC[C@H]4C(C)(C)[C@@H](O[C@H]5CN(CC6(O)CN(CCOC)C6)CCO5)CC[C@@]45C[C@@]35CC[C@]21C)C(C)(C)O [Compound I-46]
Aβ-38; read-out: Aβ 38 IC50
  pIC50: 6.30 to 7.00
Aβ-42; [1]
  pIC50: > 7.00
Aβ-42; read-out: Aβ 42 IC50
  pIC50: > 7.00
Aβ-40; read-out: Aβ 40 IC50
  pIC50: 6.00 to 6.30

## CCO[C@@H]([C@H]1C[C@@H](C)[C@H]2[C@H](O1)[C@H](O)[C@@]1(C)[C@@H]3CC[C@H]4C(C)(C)[C@@H](O[C@H]5CN(C6CN(CC(F)F)C6)CCO5)CC[C@@]45C[C@@]35CC[C@]21C)C(C)(C)O [Compound I-9]
Aβ-38; read-out: Aβ 38 IC50
  pIC50: 6.00 to 6.30
Aβ-42; [1]
  pIC50: 6.30 to 7.00
Aβ-42; read-out: Aβ 42 IC50
  pIC50: 6.30 to 7.00
Aβ-40; read-out: Aβ 40 IC50
  pIC50: 5.30 to 6.00

## CCO[C@@H]([C@H]1C[C@@H](C)[C@H]2[C@H](O1)[C@H](O)[C@@]1(C)[C@@H]3CC[C@H]4C(C)(C)[C@@H](O[C@H]5CN(CC6(O)CN(C7CCC7)C6)CCO5)CC[C@@]45C[C@@]35CC[C@]21C)C(C)(C)O [Compound I-44]
Aβ-38; read-out: Aβ 38 IC50
  pIC50: 6.30 to 7.00
Aβ-42; [1]
  pIC50: > 7.00
Aβ-42; read-out: Aβ 42 IC50
  pIC50: > 7.00
Aβ-40; read-out: Aβ 40 IC50
  pIC50: 5.30 to 6.00

## CCO[C@@H]([C@H]1C[C@@H](C)[C@H]2[C@H](O1)[C@H](O)[C@@]1(C)[C@@H]3CC[C@H]4C(C)(C)[C@@H](O[C@H]5CN(C(C)(C)C6CN(C)C6)CCO5)CC[C@@]45C[C@@]35CC[C@]21C)C(C)(C)O [Compound I-12]
Aβ-38; read-out: Aβ 38 IC50
  pIC50: 6.30 to 7.00
Aβ-42; [1]
  pIC50: 6.30 to 7.00
Aβ-42; read-out: Aβ 42 IC50
  pIC50: 6.30 to 7.00
Aβ-40; read-out: Aβ 40 IC50
  pIC50: 5.30 to 6.00

## CCO[C@@H]([C@H]1C[C@@H](C)[C@H]2[C@H](O1)[C@H](O)[C@@]1(C)[C@@H]3CC[C@H]4C(C)(C)[C@@H](O[C@H]5CN(C6(C)CN(CC(C)(C)C)C6)CCO5)CC[C@@]45C[C@@]35CC[C@]21C)C(C)(C)O [Compound I-33]
Aβ-38; read-out: Aβ 38 IC50
  pIC50: 6.30 to 7.00
Aβ-42; [1]
  pIC50: > 7.00
Aβ-42; read-out: Aβ 42 IC50
  pIC50: 6.30 to 7.00

## CCO[C@@H]([C@H]1C[C@@H](C)[C@H]2[C@H](O1)[C@H](O)[C@@]1(C)[C@@H]3CC[C@H]4C(C)(C)[C@@H](O[C@H]5CN(C6(C)CN(C7COC7)C6)CCO5)CC[C@@]45C[C@@]35CC[C@]21C)C(C)(C)O [Compound I-36]
Aβ-38; read-out: Aβ 38 IC50
  pIC50: 6.00 to 6.30
Aβ-42; [1]
  pIC50: 6.30 to 7.00
Aβ-42; read-out: Aβ 42 IC50
  pIC50: 6.30 to 7.00

## CCO[C@@H]([C@H]1C[C@@H](C)[C@H]2[C@H](O1)[C@H](O)[C@@]1(C)[C@@H]3CC[C@H]4C(C)(C)[C@@H](O[C@H]5CN(CC6(O)CN(CCO)C6)CCO5)CC[C@@]45C[C@@]35CC[C@]21C)C(C)(C)O [Compound I-69]
Aβ-38; read-out: Aβ 38 IC50
  pIC50: 6.30 to 7.00
Aβ-42; [1]
  pIC50: > 7.00
Aβ-42; read-out: Aβ 42 IC50
  pIC50: > 7.00
Aβ-40; read-out: Aβ 40 IC50
  pIC50: 6.00 to 6.30

## CCO[C@@H]([C@H]1C[C@@H](C)[C@H]2[C@H](O1)[C@H](O)[C@@]1(C)[C@@H]3CC[C@H]4C(C)(C)[C@@H](O[C@H]5CN(C6(C)CN(CCOC)C6)CCO5)CC[C@@]45C[C@@]35CC[C@]21C)C(C)(C)O [Compound I-37]
Aβ-38; read-out: Aβ 38 IC50
  pIC50: 6.30 to 7.00
Aβ-42; [1]
  pIC50: > 7.00
Aβ-42; read-out: Aβ 42 IC50
  pIC50: 6.30 to 7.00
Aβ-40; read-out: Aβ 40 IC50
  pIC50: 5.30 to 6.00

## CCO[C@@H]([C@H]1C[C@@H](C)[C@H]2[C@H](O1)[C@H](O)[C@@]1(C)[C@@H]3CC[C@H]4C(C)(C)[C@@H](O[C@H]5CN(C6CN(CCF)C6)CCO5)CC[C@@]45C[C@@]35CC[C@]21C)C(C)(C)O [Compound I-4]
Aβ-38; read-out: Aβ 38 IC50
  pIC50: 6.00 to 6.30
Aβ-42; [1]
  pIC50: 6.30 to 7.00
Aβ-42; read-out: Aβ 42 IC50
  pIC50: 6.30 to 7.00
Aβ-40; [2]
  pIC50: < 5.30
Aβ-40; read-out: Aβ 40 IC50
  pIC50: 5.30 to 6.00

## CCO[C@@H]([C@H]1C[C@@H](C)[C@H]2[C@H](O1)[C@H](O)[C@@]1(C)[C@@H]3CC[C@H]4C(C)(C)[C@@H](O[C@H]5CN(C(C)(C)C6CN(C7COC7)C6)CCO5)CC[C@@]45C[C@@]35CC[C@]21C)C(C)(C)O [Compound I-15]
Aβ-38; read-out: Aβ 38 IC50
  pIC50: 6.00 to 6.30
Aβ-42; [1]
  pIC50: 6.30 to 7.00
Aβ-42; read-out: Aβ 42 IC50
  pIC50: 6.30 to 7.00
Aβ-40; [2]
  pIC50: < 5.30
Aβ-40; read-out: Aβ 40 IC50
  pIC50: 5.30 to 6.00

## CCO[C@@H]([C@H]1C[C@@H](C)[C@H]2[C@H](O1)[C@H](O)[C@@]1(C)[C@@H]3CC[C@H]4C(C)(C)[C@@H](O[C@H]5CN(C6(C)CN(CC7(C)COC7)C6)CCO5)CC[C@@]45C[C@@]35CC[C@]21C)C(C)(C)O [Compound I-34]
Aβ-38; read-out: Aβ 38 IC50
  pIC50: 6.00 to 6.30
Aβ-42; [1]
  pIC50: 6.30 to 7.00
Aβ-42; read-out: Aβ 42 IC50
  pIC50: 6.30 to 7.00
Aβ-40; read-out: Aβ 40 IC50
  pIC50: 5.30 to 6.00

## CCO[C@@H]([C@H]1C[C@@H](C)[C@H]2[C@H](O1)[C@H](O)[C@@]1(C)[C@@H]3CC[C@H]4C(C)(C)[C@@H](O[C@H]5CN(C6CN(C(CO)CO)C6)CCO5)CC[C@@]45C[C@@]35CC[C@]21C)C(C)(C)O [Compound I-74]
Aβ-38; read-out: Aβ 38 IC50
  pIC50: 6.30 to 7.00
Aβ-42; [1]
  pIC50: 6.30 to 7.00
Aβ-42; read-out: Aβ 42 IC50
  pIC50: 6.30 to 7.00
Aβ-40; read-out: Aβ 40 IC50
  pIC50: 5.30 to 6.00

## CCO[C@@H]([C@H]1C[C@@H](C)[C@H]2[C@H](O1)[C@H](O)[C@@]1(C)[C@@H]3CC[C@H]4C(C)(C)[C@@H](O[C@H]5CN(C6CCN(C7CCC7)CC6)CCO5)CC[C@@]45C[C@@]35CC[C@]21C)C(C)(C)O [Compound I-21]
Aβ-38; inflection of dose response curve, read-out: Aβ 38 DR IC50 Inflection
  pIC50: 6.00 to 6.30
Aβ-38; read-out: Aβ 38 IC50
  pIC50: 6.00 to 6.30
Aβ-42; [1]
  pIC50: 6.30 to 7.00
Aβ-42; read-out: Aβ 42 IC50
  pIC50: 6.30 to 7.00
Aβ-40; [2]
  pIC50: 5.30 to 6.00
Aβ-40; read-out: Aβ 40 IC50
  pIC50: 5.30 to 6.00

## CCO[C@@H]([C@H]1C[C@@H](C)[C@H]2[C@H](O1)[C@H](O)[C@@]1(C)[C@@H]3CC[C@H]4C(C)(C)[C@@H](O[C@H]5CN(CC6CN(C(CO)CO)C6)CCO5)CC[C@@]45C[C@@]35CC[C@]21C)C(C)(C)O [Compound I-73]
Aβ-38; read-out: Aβ 38 IC50
  pIC50: 6.30 to 7.00
Aβ-42; [1]
  pIC50: 6.30 to 7.00
Aβ-42; read-out: Aβ 42 IC50
  pIC50: 6.30 to 7.00
Aβ-40; read-out: Aβ 40 IC50
  pIC50: 5.30 to 6.00

## CCO[C@@H]([C@H]1C[C@@H](C)[C@H]2[C@H](O1)[C@H](O)[C@@]1(C)[C@@H]3CC[C@H]4C(C)(C)[C@@H](O[C@H]5CN(C6CN(CC7(C)COC7)C6)CCO5)CC[C@@]45C[C@@]35CC[C@]21C)C(C)(C)O [Compound I-32]
Aβ-38; read-out: Aβ 38 IC50
  pIC50: 6.30 to 7.00
Aβ-42; [1]
  pIC50: 6.30 to 7.00
Aβ-42; read-out: Aβ 42 IC50
  pIC50: 6.30 to 7.00
Aβ-40; read-out: Aβ 40 IC50
  pIC50: 5.30 to 6.00

## CCO[C@@H]([C@H]1C[C@@H](C)[C@H]2[C@H](O1)[C@H](O)[C@@]1(C)[C@@H]3CC[C@H]4C(C)(C)[C@@H](O[C@H]5CN(CCN6CC(F)(F)C6)CCO5)CC[C@@]45C[C@@]35CC[C@]21C)C(C)(C)O [Compound I-64]
Aβ-38; read-out: Aβ 38 IC50
  pIC50: 6.00 to 6.30
Aβ-42; [1]
  pIC50: 6.30 to 7.00
Aβ-42; read-out: Aβ 42 IC50
  pIC50: 6.30 to 7.00
